In US12048695B2, “Immediate release pharmaceutical formulation of 4-[3-(4-cyclopropanecarbonyl-piperazine-1-carbonyl)-4-fluoro-benzyl]-2H-phthalazin-1-one” (KUDOS PHARMACEUTICALS LIMITED, priority 2008, dated 2024):
Converted amounts (≈) assume the structure as drawn. Where two headings read alike, the source gives them in different places. One block for each compound: values may come before it.

Key:
pKa = format: physicochemical; conditions: phthalazinone moiety
Description: 4-[3-(4-cyclopropanecarbonyl-piperazine-1-carbonyl)-4-fluoro-benzyl]-2H-phthalazin-1-one (Compound 1) is a weakly acidic compound with a pKa of about 12.5 (phthalazinone moiety). It is essentially neutral across the physiological pH range.

Caco-2 monolayers = assay: Permeability across Caco-2 monolayers; format: in vitro ADME
[1] = Permeability across Caco-2 monolayers; format: in vitro ADME; conditions: human, Caco-2; for efflux ratio / Papp A→B / Papp B→A: marker compound, concentration not given
P-gp = assay: Permeability across Caco-2 monolayers; format: in vitro ADME; conditions: human, Caco-2, 10 μM
[2] = Solubility in real and simulated gastrointestinal media; format: physicochemical; conditions: thermodynamic from solid; for solubility thermodynamic at 24 hr: read-out: Equilibrium solubility, 24 hr
Method: The solubility of Compound 1 was also measured in real and simulated gastrointestinal media (Table 2).

[3] = Solubility in water and pH buffered solutions; format: physicochemical
Method: The solubility of crystalline Form A of Compound 1 was measured in water and a range of pH buffered solutions representing the physiological pH range. The physical form of any undissolved (or precipitated) Compound 1 was not assessed by XRPD after solubility determination. The Form A crystalline form of Compound 1 is disclosed in WO2008/047082.

[4] = In vitro dissolution of Compound 1 preparations (USP Apparatus I, TRIS buffer pH 7.2); format: physicochemical
Method: Dissolution was performed according to the general procedure of the United States Pharmacopeia Apparatus I (Basket). An amount of material containing approximately 100 mg of Compound 1 was weighed accurately then transferred to a dissolution vessel containing 500 mL of TRIS buffer (0.05M tris(hydroxymethyl)aminomethane solution adjusted to pH 7.2 with hydrochloric acid) maintained at 37° C. and stirred at 100 rpm. […] Compound 1 concentration in the filtrate was determined by ultraviolet spectroscopy at a wavelength of 278 nm.

SMILES: O=C(c1cc(Cc2n[nH]c(=O)c3ccccc23)ccc1F)N1CCN(C(=O)C2CC2)CC1 [Compound 1, 4-[3-(4-cyclopropanecarbonyl-piperazine-1-carbonyl)-4-fluoro-benzyl]-2H-phthalazin-1-one]
pKa (pKa): ~12.5 | permeability (Caco-2 monolayers; compared to the high permeability marker propranolol): moderately permeable | human Peff (Caco-2 monolayers; equated from Caco-2 Papp): 140 ×10⁻⁶ cm/s | efflux by P-gp (Caco-2 monolayers; low concentrations (10 μM), inhibited by Elacridar): propensity for efflux by P-gp | Papp at 10 μM [1]: 3.67 ×10⁻⁶ cm/s | efflux ratio at 260 μM ([1]; 260 μM): 2.3 | Papp A→B at 260 μM ([1]; 260 μM, n = 3, ±S.D.): 7.75 ± 0.88 ×10⁻⁶ cm/s | Papp B→A at 260 μM ([1]; 260 μM, n = 3, ±S.D.): 17.8 ± 1.19 ×10⁻⁶ cm/s | efflux ratio at 700 μM ([1]; 700 μM): 1.8 | Papp A→B at 700 μM ([1]; 700 μM, n = 3, ±S.D.): 8.4 ± 0.41 ×10⁻⁶ cm/s | Papp B→A at 700 μM ([1]; 700 μM, n = 3, ±S.D.): 15.1 ± 1.42 ×10⁻⁶ cm/s | efflux ratio at 10 μM (P-gp): 6.5 | Papp A→B at 10 μM (P-gp; n = 3, ±S.D.): 3.67 ± 0.34 ×10⁻⁶ cm/s | Papp B→A at 10 μM (P-gp; n = 3, ±S.D.): 23.7 ± 2.84 ×10⁻⁶ cm/s | solubility ([2]; fed state simulated intestinal fluid, fessif, read-out: highest solubility): 200 µg/mL (≈ 460 µM) | solubility at 24 hr ([2]; human, real and simulated gastrointestinal media, fassgf or other biorelevant): 120 to 200 µg/mL (≈ 276 to 460 µM) | solubility thermodynamic ([3]; aqueous buffer, thermodynamic from solid, range of aqueous buffers (pH 1-9), read-out: aqueous equilibrium solubility): ~100 µg/mL (≈ 230 µM)

SMILES: O=C(c1cc(Cc2n[nH]c(=O)c3ccccc23)ccc1F)N1CCN(C(=O)C2CC2)CC1 [Compound 1 (Form A), 4-[3-(4-cyclopropanecarbonyl-piperazine-1-carbonyl)-4-fluoro-benzyl]-2H-phthalazin-1-one]
solubility thermodynamic at 24 hr ([2]; Fasted State Simulated Intestinal Fluid (FaSSIF), fassif): 130 µg/mL (≈ 299 µM) | solubility thermodynamic at 24 hr ([2]; Fed State Simulated Intestinal Fluid (FeSSIF), fessif): 200 µg/mL (≈ 460 µM) | solubility thermodynamic at 24 hr ([2]; Simulated Gastric Fluid (SGF), simulated gastric fluid): 120 µg/mL (≈ 276 µM) | solubility thermodynamic at 24 hr ([2]; human, Human Gastric Fluid (HGF), plasma or biological fluid): 150 µg/mL (≈ 345 µM) | solubility thermodynamic at 24 hr ([2]; human, Human Intestinal Fluid (HIF), plasma or biological fluid): 170 µg/mL (≈ 391 µM) | solubility at 1 hr ([3]; aqueous buffer, thermodynamic from solid, 0.1M NaOH, pH 12.5): 650 µg/mL (≈ 1500 µM) | solubility at 24 hr ([3]; aqueous buffer, thermodynamic from solid, 0.1M NaOH, 24 hr, pH 12.4): 599 µg/mL (≈ 1380 µM) | solubility at 1 hr ([3]; aqueous buffer, thermodynamic from solid, pH 3 Citrate Buffer, pH 2.9): 124 µg/mL (≈ 285 µM) | solubility at 24 hr ([3]; aqueous buffer, thermodynamic from solid, pH 3 Citrate Buffer, 24 hr, pH 2.9): 112 µg/mL (≈ 258 µM) | solubility at 1 hr ([3]; aqueous buffer, thermodynamic from solid, pH 6.8 Phosphate Buffer, pH 6.9): 111 µg/mL (≈ 255 µM) | solubility at 24 hr ([3]; aqueous buffer, thermodynamic from solid, pH 6.8 Phosphate Buffer, 24 hr, pH 6.9): 96 µg/mL (≈ 221 µM) | solubility at 1 hr ([3]; aqueous buffer, thermodynamic from solid, pH 9 Buffer, pH 8.9): 116 µg/mL (≈ 267 µM) | solubility ([3]; pH 9 Buffer, 24 hr, pH 8.8): 102 µg/mL (≈ 235 µM) | solubility at 1 hr ([3]; simulated gastric fluid, thermodynamic from solid, 0.1M HCl, pH 1.2): 128 µg/mL (≈ 295 µM) | solubility at 24 hr ([3]; simulated gastric fluid, thermodynamic from solid, 0.1M HCl, 24 hr, pH 1.2): 114 µg/mL (≈ 262 µM) | solubility at 1 hr ([3]; thermodynamic from solid, Water, pH 5.6): 124 µg/mL (≈ 285 µM) | solubility at 24 hr ([3]; thermodynamic from solid, Water, 24 hr, pH 6.0): 109 µg/mL (≈ 251 µM)

SMILES: C[C@H]1O[C@@H](O[C@H]2[C@@H](O)C[C@H](O[C@H]3[C@@H](O)C[C@H](O[C@H]4CC[C@@]5(C)[C@H](CC[C@@H]6[C@@H]5C[C@@H](O)[C@]5(C)[C@@H](C7=CC(=O)OC7)CC[C@]65O)C4)O[C@@H]3C)O[C@@H]2C)C[C@H](O)[C@@H]1O [Digoxin, digoxin, reference compound]
efflux ratio [1]: 9.1 | Papp A→B ([1]; n = 3, ±S.D.): 1.34 ± 0.03 ×10⁻⁶ cm/s | Papp B→A ([1]; n = 3, ±S.D.): 12.2 ± 1.37 ×10⁻⁶ cm/s

Now from value to compound:

efflux ratio [1]: 1.1 | Papp A→B ([1]; n = 3, ±S.D.): 20 ± 2.57 ×10⁻⁶ cm/s | Papp B→A ([1]; n = 3, ±S.D.): 21.5 ± 0.33 ×10⁻⁶ cm/s
SMILES: CC(C)NCC(O)COc1cccc2ccccc12 (stereo not drawn) [Propranolol, propranolol, reference compound]

Dissolution (% Release) ([4]; 15 min): 15% | Dissolution (% Release) ([4]; 30 min): 28% | Dissolution (% Release) ([4]; 45 min): 43% | Dissolution (% Release) ([4]; 60 min): 51% | Dissolution (% Release) ([4]; 75 min): 58% | Dissolution (% Release) ([4]; 90 min): 62% | Dissolution (% Release) ([4]; 105 min): 68% | Dissolution (% Release) ([4]; 120 min): 71%
SMILES: O=C(c1cc(Cc2n[nH]c(=O)c3ccccc23)ccc1F)N1CCN(C(=O)C2CC2)CC1 [Drug only]
